This is an account of results in patent US12263248B2, “Compounds and compositions for intracellular delivery of therapeutic agents” (ModernaTX, Inc., priority 2018, dated 2025).

Each structure is given as a SMILES string. Like-named read-outs stand apart in the source and are kept apart here.

The nature of data set [1]: Nanoparticle characterisation: particle size, polydispersity index, zeta potential. It counts as physicochemical. The note with it: nanoparticle composition with hEPO mRNA (Table 30). An excerpt: Nanoparticle compositions may be characterized by a variety of methods. For example, microscopy (e.g., transmission electron microscopy or scanning electron microscopy) may be used to examine the morphology and size distribution of a nanoparticle composition. Dynamic light scattering or potentiometry (e.g., potentiometric titrations) may be used to measure zeta potentials. Dynamic light scattering may also be utilized to determine particle sizes. Instruments such as the Zetasizer Nano ZS (Malvern Instruments Ltd, Malvern, Worcestershire, UK) may also be used to measure multiple characteristics of a nanoparticle composition, such as particle size, polydispersity index, and zeta potential.
The mean size of a nanoparticle composition may be between 10s of nm and 100s of nm, e.g., measured by dynamic light scattering (DLS). For example, the mean size may be from about 40 nm to about 150 nm, such as about 40 nm, 45 nm, 50 nm, 55 nm, 60 nm, 65 nm, 70 nm, 75 nm, 80 nm, 85 nm, 90 nm, 95 nm, 100 nm, 105 nm, 110 nm, 115 nm, 120 nm, 125 nm, 130 nm, 135 nm, 140 nm, 145 nm, or 150 nm. In some embodiments, the mean size of a nanoparticle composition may be from about 50 nm to about 100 nm, from about 50 nm to about 90 nm, from about 50 nm to about 80 nm, from about 50 nm to about 70 nm, from about 50 nm to about 60 nm, from about 60 nm to about 100 nm, from about 60 nm to about 90 nm, from about 60 nm to about 80 nm, from about 60 nm to about 70 nm, from about 70 nm to about 150 nm, from about 70 nm to about 130 nm, from about 70 nm to about 100 nm, from about 70 nm to about 90 nm, from about 70 nm to about 80 nm, from about 80 nm to about 150 nm, from about 80 nm to about 130 nm, from about 80 nm to about 100 nm, from about 80 nm to about 90 nm, from about 90 nm to about 150 nm, from about 90 nm to about 130 nm, or from about 90 nm to about 100 nm. In certain embodiments, the mean size of a nanoparticle composition may from about 70 nm to about 130 nm or be from about 70 nm to about 100 nm. In a particular embodiment, the mean size may be about 80 nm. In other embodiments, the mean size may be about 100 nm. In other embodiments, the mean size may be about 120 nm.
A nanoparticle composition may be relatively homogenous. A polydispersity index may be used to indicate the homogeneity of a nanoparticle composition, e.g., the particle size distribution of the nanoparticle compositions. A small (e.g., less than 0.3) polydispersity index generally indicates a narrow particle size distribution. A nanoparticle composition may have a polydispersity index from about 0 to about 0.25, such as 0.01, 0.02, 0.03, 0.04, 0.05, 0.06, 0.07, 0.08, 0.09, 0.10, 0.11, 0.12, 0.13, 0.14, 0.15, 0.16, 0.17, 0.18, 0.19, 0.20, 0.21, 0.22, 0.23, 0.24, or 0.25. In some embodiments, the polydispersity index of a nanoparticle composition may be from about 0.10 to about 0.20.
The zeta potential of a nanoparticle composition may be used to indicate the electrokinetic potential of the composition. For example, the zeta potential may describe the surface charge of a nanoparticle composition. Nanoparticle compositions with relatively low charges, positive or negative, are generally desirable, as more highly charged species may interact undesirably with cells, tissues, and other elements in the body. In some embodiments, the zeta potential of a nanoparticle composition may be from about −10 mV to about +20 mV, from about −10 mV to about +15 mV, from about −10 mV to about +10 mV, from about −10 mV to about +5 mV, from about −10 mV to about 0 mV, from about −10 mV to about −5 mV, from about −5 mV to about +20 mV, from about −5 mV to about +15 mV, from about −5 mV to about +10 mV, from about −5 mV to about +5 mV, from about −5 mV to about 0 mV, from about 0 mV to about +20 mV, from about 0 mV to about +15 mV, from about 0 mV to about +10 mV, from about 0 mV to about +5 mV, from about +5 mV to about +20 mV, from about +5 mV to about +15 mV, or from about +5 mV to about +10 mV.

Data set [2] is described as follows: ALT and AST after intravenous administration to rat (Table 19A). It counts as in vivo. On the procedure: Table 19A summarizes the hEPO expression, IP-10 induction, liver and spleen levels, and alanine aminotransferase (ALT) and aspartate aminotransferase (AST) measured upon intravenous administration of formulations including Compounds 48, 49, and 50 to rat at 0.2 and 2 mpk and hEPO mRNA. hEPO concentrations were measured 6 hours after administration, while cytokine induction and liver and spleen levels were measured 48 hours after administration. hEPO and IP-10 concentrations are presented in pg/ml, while liver levels are provided in ng/g. ALT and AST levels are presented in international units.

The nature of data set [3]: Pharmacokinetics of lipids in mice. It is filed as in vivo. Further details: AUC / AUCall Mean: concentration or dose not given beside the values. Conditions: mouse; for AUC: read-out: AUCall Mean; for Tmax: read-out: Tmax. Here is the method: FIGS. 45A and 45B are a pair of graphs illustrating pharmacokinetics of lipids of the disclosure in mice. Mice were administered compositions comprising Compound 50 (FIG. 45A) or Compound 301 (FIG. 45B), in nanoparticle compositions containing DSPC and PEG 1.

In data set [4] the test system is hEPO mRNA. The data set is described as follows: hEPO expression and cytokine induction after intravenous administration to mice. It is filed as in vivo. Conditions: for hEPO expression and average total flux compared with MC3: Table 12 comparison, in words; for hEPO concentrations compared with MC3 formulations / hEPO expression 3 h / Average hEPO concentration (pg/ml, 6 h) / Cytokine expression IL-6 (6 h) / Cytokine expression IP-10 (6 h) / hEPO expression 6 h / Fold increase in hEPO concentration relative to MC3 / hEPO expression 24 h: mice, 0.5 mpk; for hEPO concentrations compared with MC3 formulations: i.v., 3, 6 and 24 hours; for hEPO expression 3 h / Average hEPO concentration (pg/ml, 6 h) / Cytokine expression IL-6 (6 h) / Cytokine expression IP-10 (6 h) / hEPO expression 6 h / Fold increase in hEPO concentration relative to MC3 / hEPO expression 24 h: intravenous; for Average hEPO concentration (pg/ml, 6 h) / Cytokine expression IL-6 (6 h) / Cytokine expression IP-10 (6 h) / hEPO expression 6 h / Fold increase in hEPO concentration relative to MC3: 6 h; for Fold increase in hEPO concentration relative to MC3: Table 12. On the procedure:
The expression of hEPO and cytokine induction in mice intravenously administered a nanoparticle composition at a dose of 0.5 mpk were measured at 3, 6, and 24 hours. […] The expression of hEPO in mice intramuscularly administered a nanoparticle composition from Table 1B at a dose of 0.01 mpk were measured at 3, 6, and 24 hours.
Blood collection and analysis for hEPO. Blood was collected from mice or rats via the tail vein and hEPO concentrations were determined using a hEPO ELISA assay.

[5] abbreviates: Liver, * = 2 terminal datapoints estimation.
[6] abbreviates: Spleen, * = 2 terminal datapoints estimation.

In data set [1], `CCCCCCCCC(C)OC(=O)CCCCCCCN(CCO)CCCCCCCC(=O)OC(CCCCCCCC)CCCCCCCC` (stereo not drawn) [Compound 48, decan-2-yl 8-((8-(heptadecan-9-yloxy)-8-oxooctyl)(2-hydroxyethyl)amino)octanoate] showed an Osmolality of 311 mOsm/kg, a Zeta potential of −3.61 mV and a pH of 7.58. In data set [2] (0.2 mpk), the ALT was determined as 59.6 international units and the AST is reported as 140.8 international units. Also, in data set [2] (2 mpk), the ALT is given as 66.0 international units and the AST came out at 131.2 international units.
`CCCCCCCCCCCOC(=O)CCCCCN(CCO)CCCCCCCC(=O)OC(CCCCCCCC)CCCCCCCC` [Compound 25, Heptadecan-9-yl 8-((2-hydroxyethyl)(6-oxo-6-(undecyloxy)hexyl)amino)octanoate]: in data set [3] (Liver), the Cmax (as a rule, the maximum level reached in the sampled fluid or tissue) is 17900 ng/mL; the AUC amounted to 89200 ng·h/mL; the time to peak (Tmax) (usually the time at which the peak concentration occurs) amounted to 1 h. Moreover, the HL in data set [3] (setting [5]) was 6.9 h. In data set [3] (Plasma), the highest level (Cmax) was 37500 ng/mL, the HL came out at 2.3 h, the AUC was 35400 ng·h/mL and the Tmax amounted to 0.5 h. In addition, in data set [3] (Spleen), the highest concentration (Cmax) came out at 20400 ng/mL, the AUC stood at 259000 ng·h/mL and the Tmax is 4 h. Besides, the HL in data set [3] (setting [6]) is 15.2 h. In addition, in data set [1], the Osmolality is 304 mOsm/kg, the Zeta potential is −3.88 mV and the pH is 7.60.
On to `CCCCCCCCCOC(=O)CCCCCCCN(CCO)CCCCCCCC(=O)OC(CCCCCCCC)CCCCCCCC` [Compound 18, Heptadecan-9-yl 8-((2-hydroxyethyl)(8-(nonyloxy)-8-oxooctyl)amino)octanoate], for which, in data set [3] (Liver), the peak level (Cmax) was 6050 ng/mL, the AUC was 16900 ng·h/mL and the Tmax was 1 h. Besides, the HL in data set [3] (setting [5]) is 5.8 h. For the same compound, in data set [3] (Plasma), the Cmax was determined as 44200 ng/mL, the HL is 1.2 h, the AUC was 61800 ng·h/mL and the Tmax came to 0.5 h. For the same compound, in data set [3] (Spleen), the Cmax was found to be 3770 ng/mL, the AUC stood at 39400 ng·h/mL and the Tmax is 4 h. Further, the HL in data set [3] (setting [6]) is 10.6 h. In data set [1], this compound registered an Osmolality of 312 mOsm/kg, a Zeta potential of −3.53 mV and a pH of 7.64. For the same compound, in data set [4], the “hEPO expression and average total flux compared with MC3” value is “outperform MC3”; the “hEPO concentrations compared with MC3 formulations” value is recorded as “higher hEPO concentrations than MC3 formulations”; the “hEPO expression 3 h” value amounted to 3e+06 pg/mL; the “Average hEPO concentration (pg/ml, 6 h)” value amounted to 3.38e+06 pg/mL. In data set [4], the “Cytokine expression IL-6 (6 h)” value is 10.16 pg/mL, the “Cytokine expression IP-10 (6 h)” value came to 299.93 pg/mL, the “hEPO expression 6 h” value worked out at 3.38e+06 pg/mL and the “Fold increase in hEPO concentration relative to MC3” value was 1.85. Also, the “hEPO expression 24 h” value in data set [4] turned out to be 1.8e+06 pg/mL.
In data set [2] (0.2 mpk), `CCCCCCCCC(CCC)OC(=O)CCCCCCCN(CCO)CCCCCCCC(=O)OC(CCCCCCCC)CCCCCCCC` (stereo not drawn) [Compound 50, dodecan-4-yl 8-((8-(heptadecan-9-yloxy)-8-oxooctyl)(2-hydroxyethyl)amino)octanoate] gave an ALT of 59.2 international units and an AST of 143.2 international units. Further, in data set [2] (2 mpk), the ALT was found to be 78.8 international units and the AST amounted to 158.4 international units.
On to `CCCCC/C=C\C/C=C\CCCCCCCCN(CCO)CCCCCCCC(=O)OC(CCCCCCCC)CCCCCCCC` [Compound 6, Heptadecan-9-yl 8-((2-hydroxyethyl)((9Z,12Z)-octadeca-9,12-dien-1-yl)amino)octanoate], for which, in data set [4], the “hEPO expression and average total flux compared with MC3” value is listed as “outperform MC3”; the “hEPO concentrations compared with MC3 formulations” value is given as “higher hEPO concentrations than MC3 formulations”; the “hEPO expression 3 h” value turned out to be 2.31e+06 pg/mL; the “Average hEPO concentration (pg/ml, 6 h)” value stood at 3.17e+06 pg/mL. Moreover, in data set [4], the “Cytokine expression IL-6 (6 h)” value worked out at 10.15 pg/mL, the “Cytokine expression IP-10 (6 h)” value amounted to 116.66 pg/mL, the “hEPO expression 6 h” value was 3.17e+06 pg/mL and the “Fold increase in hEPO concentration relative to MC3” value was 1.73. Also, the “hEPO expression 24 h” value in data set [4] came to 1.11e+06 pg/mL.
With `CCCCCCCCC(CC)OC(=O)CCCCCCCN(CCO)CCCCCCCC(=O)OC(CCCCCCCC)CCCCCCCC` (stereo not drawn) [Compound 49, heptadecan-9-yl 8-((2-hydroxyethyl)(8-oxo-8-(undecan-3-yloxy)octyl)amino)octanoate], the ALT is 54.0 international units in data set [2] (0.2 mpk) and 77.8 international units in data set [2] (2 mpk). The AST in data set [2] (0.2 mpk) is recorded as 99.4 international units; in data set [2] (2 mpk), 132.4 international units.
Regarding `CCCCCCCCCOC(=O)CCCN(CCO)CCCCCCCC(=O)OC(CCCCCCCC)CCCCCCCC` [Compound 26, Heptadecan-9-yl 8-((2-hydroxyethyl)(4-(nonyloxy)-4-oxobutyl)amino) octanoate], in data set [1], the Osmolality came to 305 mOsm/kg, the Zeta potential is listed as −3.73 mV and the pH was 7.54.
